Experimental findings from BindingDB's records for doi:10.1016/s0960-894x(01)00654-0 (Merck Research Laboratories, 2001) are described below.

By IC50 is commonly meant the concentration at which inhibition is half-maximal. Read a low IC50 as greater potency in that assay.

Molecules are shown by their SMILES.

The target of assay [1] is T1, C-C chemokine receptor type 5 (Homo sapiens, UniProt P51681). As to the kind of experiment: (§1) Binding affinity against C-C chemokine receptor type 5 stably expressed in Chinese hamster ovary (CHO) cells using [125I]-MIP-1 alpha as the radioligand.
Assay [2] addresses T1, C-C chemokine receptor type 5. The experiment in a line: ChEBML_39507.
Source text: as §1

T1 sequence (P51681 whole entry): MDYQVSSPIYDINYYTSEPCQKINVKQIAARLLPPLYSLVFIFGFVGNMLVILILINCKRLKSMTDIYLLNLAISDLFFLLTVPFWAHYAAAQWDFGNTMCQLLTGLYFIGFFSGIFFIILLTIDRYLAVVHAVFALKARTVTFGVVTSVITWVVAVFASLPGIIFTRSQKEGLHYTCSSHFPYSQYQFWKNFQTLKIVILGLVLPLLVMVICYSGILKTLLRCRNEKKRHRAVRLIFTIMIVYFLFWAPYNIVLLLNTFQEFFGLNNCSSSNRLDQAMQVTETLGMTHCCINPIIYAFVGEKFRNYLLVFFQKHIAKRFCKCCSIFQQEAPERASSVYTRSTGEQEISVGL

Take `O=c1[nH]c(Cc2c[nH]c3ccccc23)c(O)n1CC(CCN1CCC(c2ccccc2)CC1)c1cccc(Cl)c1` [(R)-3-[2-(3-Chloro-phenyl)-4-(4-phenyl-piperidin-1-yl)-butyl]-5-(1H-indol-3-ylmethyl)-imidazolidine-2,4-dione]: the IC50 in assay [1] and in assay [2] was 25 nM throughout.
